The source of these data is patent publication US9149492B2, “Method for selectively inhibiting ACAT1 in the treatment of alzheimer's disease” (Trustees of Dartmouth College, priority 2008, dated 2015).

For orientation: IC50 means the concentration that inhibits the measured activity by half.

The subject of one data set is AD mice. The note with it: in vivo, cited from earlier work.
Data set [1] concerns hippocampal neurons from A1+/Alz mice. Kind of data set: 24SOH treatment of hippocampal neurons, hAPP and HMGR content. It counts as cell-based, mouse. As for the experimental part:
Hippocampal neurons were isolated from A1+/Alz and A1−/Alz mice at postnatal day 5 according to standard protocols (Brewer (1997) J. Neurosci. Methods 71:143-155; Price & Brewer (2001) In Protocols for Neural Cell Culture. Fedoroff & Richardson, editors. Totowa, N.J.: Humana Press, Inc. 255-264). Cells were seeded in 6-well dishes in triplicates at 300,000 cells/well, and grown in 3 ml/well Neurobasal A medium with 1×B27, 0.5 mM L-Gln and 5 ng/ml FGF for 14 days. Half of the medium was replaced with […] fresh media once every 7 days. Forty-eight hours after the second media replacement, 50 μCi of [^3H] sodium acetate (100 mCi/mmol) in PBS was added per well for 3 hours. Lipids in cells and in media were extracted, saponified, and analyzed by using the same TLC system described herein. To minimize sterol oxidation, samples were protected from light and heat during lipid extraction, and were analyzed without storage. To improve separation, after sample loading, the TLC plate was placed under vacuum for 30 minutes prior to chromatography. ^3H-labeled sterol bands were identified based on iodine staining of unlabeled sterols added to samples prior to lipid extraction. Rf values: lanosterol, 0.5; cholesterol, 0.38; 24SOH, 0.2. The bands were scraped off and counted. For each labeled sterol, the counts present in cells and in media were added to calculate the synthesis rate for that sterol. Cholesterol esterification in intact cells was conducted according to established methods (Chang, et al. (1986) Biochemistry 25:1693-1699); the ^3H-oleate pulse time was 3 hours.
To test this, hippocampal neurons from A1+/Alz mice were treated with 24SOH, and the hAPP protein content and the HMGR protein content were monitored in parallel.

In data set [2] the test system is transgenic mice expressing human APP(751) containing the London (V717I) and Swedish (K670M/N671L) mutations. To be noted: cited from earlier work.
In the next data set the target is mouse ACAT1 (Mus musculus (Mouse), UniProt Q61263). The data set is described as follows: ACAT1 western blot in NIH-3T3 fibroblasts transfected with microRNA. It counts as cell-based. To be noted: 48 hours post-transfection, GFP-positive cells. The text has this: NIH-3T3 mouse fibroblasts were transiently transfected with one of several rAAV vectors encoding EmGFP and microRNA (miR) #52, #53, #54 or #55. Forty-eight hours post-transfection, GFP-positive cells were harvested by FACS. GFP-positive cells were washed then lysed in 10% SDS and syringe homogenized. Twenty microgram of protein per sample was subjected to SDS-PAGE. After western blot analysis, bands were quantified with ImageJ. ACAT1 intensity was normalized to GAPDH as a loading control and expressed as relative intensity.
Four different siRNA molecules (#52-#55; SEQ ID NOs:37-40; Table 3) targeting the mouse Acat1 gene were inserted into an endogenous mouse microRNA (miR) scaffold using Invitrogen's RNAi design tool. The artificial miRs were ligated into the mammalian expression vector pcDNA6.2-GW/EmGFP-miR. These. […] The miRs were delivered to the cells using a standard cDNA transfection protocol.
Background: A western blot detects proteins with antibodies after separation by electrophoresis.

In the next data set the test system is WT or A1-microglia. The data set is described as follows: Pulse-chase of intracellular oAβ42 degradation in microglia with lysosomal inhibitors. It counts as cell-based, mouse. The note with it: pre-incubation with inhibitor, 0.5 μM oAβ 30 minutes, 6 hours chase. Here is the method:
WT or A1-microglia were pretreated with DMSO only; with bafilomycin A1 (BafA1), a lysosomal v-ATPase inhibitor (250 nM); with Ac-LVK-CHO, a cell permeable cathepsin B inhibitor (CapB I) at 1 μM; or with pepstatin A methyl ester, a cell permeable aspartyl peptidase inhibitor at 25 μM, for 60 minutes. Cells with or without the inhibitors were further incubated with 0.5 μM oAβ for 30 minutes. Cells were washed with pre-warmed PBS (twice) and pre-warmed medium (once) and then further incubated in fresh serum-free DMEM/F-12 (50:50) for 6 hours. At the end of incubation, cells were washed with PBS twice and lysed with 1% SDS containing a protease inhibitor cocktail. Intracellular oAβ levels were examined by ELISA. The values were normalized by cellular protein contents. The data are averages of 3-4 independent experiments. (mean±SEM, n.s. not significant, *p<0.05, p<0.01, ***p<0.001).
Pulse-chase of oAβ42 was also carried out (FIG. 4A) and the fate of oAβ42 was monitored via an ELISA assay.

In the next data set the target is human ACAT2 (Homo sapiens (Human), UniProt O75908). The note with it: read-out: IC50 hACAT-2; cited from earlier work.
The next data set concerns WT microglia. The data set is described as follows: Oligomeric Aβ clearance from medium by microglia. It counts as cell-based, mouse. To be noted: 1 μM pretreatment 24 hours, then 0.5 μM oAβ 18 hours. Here is the method: WT or A1-microglia were treated with K604 at 1 μM in DMEM/F-12 (50:50) with 10% FBS for 24 hours. Control (Veh) or K604-treated microglia were subsequently incubated with 0.5 μM oAβ in serum-free DMEM/F-12 (50:50) containing 10 μg/ml BSA for 18 hours. At the end of incubation, the media were collected and the residual oAβ levels were detected by western blot analysis. Quantification was performed with image J software (mean±SEM, ***p<0.001).
Primary microglia from normal (WT) and Acat1-knockout (A1−) mouse brains were cultured in vitro. Oligomeric Aβ42 (0.5 μM) in serum-free DMEM/F-12 (50:50) medium containing 10 μg/ml BSA was added to the culture and the culture was incubated for 0, 3, 6, 12 or 18 hours. The remaining Aβ levels (1+2+3+4mers) in the media were analyzed by western blot analysis.
Clearance of oAβ in WT microglia and WT microglia pretreated with the ACAT1-selective inhibitor K604 was also determined.

Peptide text beside a SMILES is read from it.

Chain of human ACAT2 (O75908 whole entry): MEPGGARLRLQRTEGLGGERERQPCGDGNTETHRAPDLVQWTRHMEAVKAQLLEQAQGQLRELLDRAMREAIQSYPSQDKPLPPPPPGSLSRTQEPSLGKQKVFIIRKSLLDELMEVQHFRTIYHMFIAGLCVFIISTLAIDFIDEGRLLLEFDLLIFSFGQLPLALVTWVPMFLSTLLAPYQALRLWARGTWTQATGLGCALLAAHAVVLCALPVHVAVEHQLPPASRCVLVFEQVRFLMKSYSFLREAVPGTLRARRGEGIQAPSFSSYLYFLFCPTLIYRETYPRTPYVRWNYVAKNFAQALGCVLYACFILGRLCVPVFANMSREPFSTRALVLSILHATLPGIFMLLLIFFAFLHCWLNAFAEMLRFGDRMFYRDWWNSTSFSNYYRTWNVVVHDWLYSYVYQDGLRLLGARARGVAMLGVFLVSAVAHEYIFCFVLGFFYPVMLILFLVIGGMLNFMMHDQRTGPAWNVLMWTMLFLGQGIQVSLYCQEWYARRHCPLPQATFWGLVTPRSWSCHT

`CC(C)c1cc(C(C)C)c(CC(=O)NS(=O)(=O)Oc2c(C(C)C)cccc2C(C)C)c(C(C)C)c1` [CI 1011]: in the data set on AD mice (mouse), the amyloid plaques result was “significantly reduced”, the cognitive deficits result is given as “rescued” and the “mature/immature ratio of hAPP” value was “decreases”.

`CC(C)[C@@H](O)CC[C@@H](C)[C@H]1CC[C@H]2[C@@H]3CC=C4C[C@@H](O)CC[C@]4(C)[C@H]3CC[C@]12C` [24SOH, 24S-hydroxycholesterol]: in data set [1] (1 μM, within 3 hours), the HMGR protein content result is recorded as “rapidly decreased” and the hAPP protein content entry is given as “rapidly decreased”. For the same molecule, in data set [1] (1-5 μM), the “hAPP mRNA level” value was “without affecting” and the hAPP protein content entry is on record as “rapid decline”.

For `CCCCCCCC[C@H](SCCCCCC)C(=O)Nc1c(SC)cc(C)nc1SC` [CP-113,818], the spatial learning entry in data set [2] (mouse, in vivo) is given as “slightly improved”. Further, in data set [2] (nontransgenic littermates), the “ectodomain shedding of endogenous APP in the brain” value is on record as “reduced”. Besides, in data set [2] (two months of treatment), the “reduction of accumulation of amyloid plaques” value is recorded as 88%-99% and the “reduction of membrane/insoluble Amyloid β levels” value is listed as 83%-96%. Moreover, in the data set with AD mice, the “processing of both human APP and mouse APP” value is recorded as “inhibits”. In the data set on AD mice (mouse), the amyloid plaques result is “significantly reduced” and the cognitive deficits result is “rescued”.

For “miR Negative Control: negative control miR 5′-TACTGCGCGTGGAGACG-3′ (SEQ ID NO:46), matches no known vertebrate gene (chemistry not given here)”, in the data set with mouse ACAT1, the “Relative Intensity (ACAT1 normalized to GAPDH)” value came out at 1.02.

For `CC(=O)N[C@@H](CC(C)C)C(=O)N[C@H](C(=O)N[C@H](C=O)CCCCN)C(C)C` [Ac-LVK-CHO] (Ac-Leu-Val-Lys-aldehyde), the “difference in oAβ42 degradation between WT and A1-microglia” value in the data set with WT or A1-microglia is “abolished”.

In the case of saucerneol B, the IC50 on human ACAT2 is 124 µM.

As to `CSc1cc(C)nc(SC)c1NC(=O)CN1CCN(CCSc2nc3ccccc3[nH]2)CC1` [K-604], in the data set with WT microglia, the “enhancement of ability to clear oAβ42 from the medium” value was “up to 65%” and the “oAβ degradation in microglia” value is reported as “promotes oAβ degradation”.
